Our source for the Ki values is ChEMBL document CHEMBL1125993, “The function of S1 subsite pocket of carboxypeptidase A” (Bioorg Med Chem Lett, 1991).

In general, Ki refers to the dissociation constant of the complex between target and ligand, obtained from inhibition or displacement. Read a high Ki as weaker binding.

The test addresses T1, Carboxypeptidase A1 (Bos taurus, UniProt P00730).
T1 sequence (P00730 whole entry): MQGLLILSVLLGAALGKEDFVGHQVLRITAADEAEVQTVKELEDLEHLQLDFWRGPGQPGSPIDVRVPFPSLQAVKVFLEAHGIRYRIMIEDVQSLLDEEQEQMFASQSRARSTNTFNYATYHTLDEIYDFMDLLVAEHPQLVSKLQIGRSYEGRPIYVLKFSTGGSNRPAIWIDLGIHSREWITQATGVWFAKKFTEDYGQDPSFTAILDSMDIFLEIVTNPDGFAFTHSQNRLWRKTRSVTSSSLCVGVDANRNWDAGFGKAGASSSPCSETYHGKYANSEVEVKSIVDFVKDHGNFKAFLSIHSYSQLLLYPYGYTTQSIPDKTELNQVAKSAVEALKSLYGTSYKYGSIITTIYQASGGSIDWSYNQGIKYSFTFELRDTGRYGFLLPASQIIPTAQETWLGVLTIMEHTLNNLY
Put plainly: Compound was evaluated for binding affinity against carboxypeptidase A (CPA), expressed as inhibitory constant (Ki).
`O=C(O)C(CS)Cc1ccc(Cl)cc1` (centres undefined) had an inhibition constant (Ki) of 160 nM.

`CC(c1ccccc1)C(CS)C(=O)O` (centres undefined) registered a Ki of 105 nM.

In turn, `CCC(c1ccccc1)C(CS)C(=O)O` (centres undefined) registered a Ki of 1500 nM.

Turning to `O=C(O)C(CS)Cc1ccc(Br)cc1` (centres undefined), the Ki worked out at 150 nM.
